Measured values reported in patent US20140378451A1, “Cannabinoid-2-Receptor Agonists” (ISIS INNOVATION LIMITED, priority 2011, published 2014).

Legend:
[1] = biological target: T1, hCB2R (Homo sapiens, UniProt P34972); assay: cAMP assay on hCB2R clone 3D8.3 (transfected CHO-K1 cells); type: cell-based; conditions: for IC50: cAMP, hCNR2 CHO-K1 3D8.3 clone, read-out: Assay 1 IC50
T1 construct: unnamed tag of the plasmid; expressed in transfected cells
Method: (§1) Compounds were evaluated for their CB2R agonist potency in the following assays:
Assay 1—cAMP Assay on hCB2R Clone 3D8.3:
Chinese hamster ovary cells (CHO)-K1 were transfected with hCB2R plasmid using Genejuice (Merck). After 48 h the cells were transferred into flasks in the presence of the antibiotic G418 and expanded (with continuous replenishment of the antibiotic). Two single-cell cloning rounds were then performed, followed by verification of the presence of the tag of the plasmid and confirming the receptor was functional in cAMP studies. For the screening of compounds: Briefly, hCNR2 CHO-K1 (3D8.3 clone) cells were plated in Optimem+1% FCS (30000 cells, 100 ul per well) in half-area 96-well plates (Corning 3885) and placed in an incubator 37° C. 5% CO2 overnight. Next day, the medium was aspirated and replaced with ‘antibody solution’ (22.5 ul) (provided concentrated, diluted 1 in 3 with ‘assay buffer’ provided). The freshly made compounds (at a ×4 final concentration) or solvent alone (1.2% DMSO) were added to the wells and incubated for 30 minutes in a 37° C. incubator 5% CO2. A mixture of: Lysis solution (38%), substrates (Emerald-II™ (10%) and Galacton-Star® (2%)) and enzyme donor-labeled cAMP (50%) was added to the wells and incubated in the dark for one hour at room temperature. 30 μl of detection reagent (enzyme acceptor, provided) was then added to the wells and incubated in the dark for 3 hours at room temperature. The luminescence was then read with a Perkin-Elmer luminometer.

[2] = biological target: T2, hCNR2 (CB2R) (Homo sapiens, UniProt P34972); assay: DiscoveRx cAMP Hunter Express GPCR assay (hCNR2 CHO-K1 cells); type: cell-based; conditions: cAMP Hunter eXpress, hCNR2 CHO-K1 cells; read-out: Assay 2 IC50
T2 construct: host or cells: CHO-K1 (purchased recombinant cell line)
Method: as §1
Assay 2—DiscoveRx cAMP Hunter Express GPCR Assay
The cAMP Hunter eXpress GPCR assay kit and cells used are from DiscoveRx Corporation (95-0040E2) using the manufacturer's protocol without the optional IBMX step. […] Briefly, hCNR2 CHO-K1 cells were plated in the provided medium (50 ul per well) in half-area 96-well plates (Corning 3885) and placed in an incubator 37° C. 5% CO2 overnight. Next day, the medium was aspirated and replaced with ‘antibody solution’ (22.5 ul) (provided concentrated, diluted 1 in 3 with ‘assay buffer’ provided). The freshly made compounds (at a ×4 final concentration) or solvent alone (1.2% DMSO) were added to the wells and incubated for 30 minutes in a 37° C. incubator 5% CO2. A mixture of lysis solution and two substrates (provided with the DiscoveRx kit) was added to the wells and incubated in the dark for one hour at room temperature. A detection reagent (provided) was then added to the wells and incubated in the dark for 3 hours at room temperature. The luminescence was then read with a Perkin-Elmer luminometer.

T2 sequence (P34972 whole entry): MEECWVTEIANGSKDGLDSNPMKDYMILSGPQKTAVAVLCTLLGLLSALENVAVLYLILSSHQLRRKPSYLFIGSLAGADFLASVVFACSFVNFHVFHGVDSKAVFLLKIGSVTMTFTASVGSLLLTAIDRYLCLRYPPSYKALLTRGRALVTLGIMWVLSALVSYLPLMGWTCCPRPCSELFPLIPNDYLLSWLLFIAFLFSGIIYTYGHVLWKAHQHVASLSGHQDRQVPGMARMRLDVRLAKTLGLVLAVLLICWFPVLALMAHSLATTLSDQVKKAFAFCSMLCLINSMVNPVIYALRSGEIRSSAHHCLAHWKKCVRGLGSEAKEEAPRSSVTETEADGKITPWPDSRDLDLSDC
T1 sequence (P34972 whole entry): as above

Row | SMILES | IC50 [1] | IC50 [2] | Assay 1 activity at 3 μM [1]
1 | O=[N+]([O-])c1ccccc1CSc1nnc2c(n1)[nH]c1ccccc12 [Example 1, 3-((2′-nitrobenzyl)thio)-5H-[1,2,4]triazino[5,6-b]indole] | 129 nM | 33 nM | –
2 | N#Cc1ccccc1CSc1nnc2c(n1)[nH]c1ccccc12 [Example 2, 3-((2′-Cyanobenzyl)thio)-5H-[1,2,4]triazino[5,6-b]indole] | 160 nM | 112 nM | –
3 | N#Cc1ccccc1CSc1nnc2c3ccccc3n(Cc3ccccc3)c2n1 [Example 3, 2′-(((5-Benzyl-5H-[1,2,4]triazino[5,6-b]indol-3-yl)thio)methyl)benzonitrile] | 96 nM | 214 nM | –
4 | N#Cc1ccccc1CSc1nnc2c3ccccc3n(Cc3ccc(Cl)cc3)c2n1 [Example 5, 2′(((5-(4″-Chlorobenzyl)-5H-[1,2,4]triazino[5,6-b]indol-3-yl)thio)methyl)benzonitrile] | ~600 nM | – | –
5 | O=[N+]([O-])c1ccccc1CSc1nnc2c3ccccc3n(Cc3ccc(Cl)cc3)c2n1 [Example 6, 5-(4″-Chlorobenzyl)-3-((2′-nitrobenzyl)thio)-5H-[1,2,4]triazino[5,6-b]indole] | 631 nM | 109 nM | –
6 | O=C(c1ccccc1)n1c2ccccc2c2nnc(SCc3ccccc3[N+](=O)[O-])nc21 [Example 7, (3-((2′-Nitrobenzyl)thio)-5H-[1,2,4]triazino[5,6-b]indol-5-yl)(phenyl)methanone] | 840 nM | 75 nM | –
7 | N#Cc1ccccc1CSc1nnc2c(n1)[nH]c1cccc(Br)c12 [Example 8, 2′-(((9-Bromo-5H-[1,2,4]triazino[5,6-b]indol-3-yl)thio)methyl)benzonitrile] | 228 nM | 39 nM | –
8 | O=[N+]([O-])c1ccccc1CSc1nnc2c3ccccc3n(Cc3ccccc3)c2n1 [Example 14, 5-Benzyl-3-((2′-nitrobenzyl)thio)-5H-[1,2,4]triazino[5,6-b]indole] | – | – | ~40% activity at 3 μM
9 | Cc1ccccc1CSc1nnc2c(n1)[nH]c1ccccc12 [Example 15, 3-((2′-Methylbenzyl)thio)-5H-[1,2,4]triazino[5,6-b]indole] | – | 215 nM | –
10 | COc1ccc(C(=O)n2c3ccccc3c3nnc(SCc4ccccc4C#N)nc32)cc1OC [Example 17] | – | – | ~60% activity at 3 μM
11 | CC(=O)n1c2ccccc2c2nnc(SCc3ccccc3C#N)nc21 [Example 29, 2′(((5-Acetyl-5H-[1,2,4]triazino[5,6-b]indol-3-yl)thio)methyl)benzonitrile] | > 3000 nM | – | –
12 | CCn1c2ccccc2c2nnc(SCc3ccccc3C#N)nc21 [Example 30, 2′-(((5-Ethyl-5H-[1,2,4]triazino[5,6-b]indol-3-yl)thio)methyl)benzonitrile] | 674 nM | – | –
13 | CCCCn1c2ccccc2c2nnc(SCc3ccccc3C#N)nc21 [Example 31, 2′-(((5-Butyl-5H-[1,2,4]triazino[5,6-b]indol-3-yl)thio)methyl)benzonitrile] | 106 nM | – | –
14 | N#Cc1ccccc1C[S+]([O-])c1nnc2c(n1)[nH]c1ccccc12 (stereo not shown) [Example 32, 2′-(((5H-[1,2,4]Triazino[5,6-b]indol-3-yl)sulfinyl)methyl)benzonitrile] | 3550 nM | – | –
15 | O=[N+]([O-])c1ccc(CSc2nnc3c(n2)[nH]c2ccccc23)cc1 [Example 33, 3-((4′-Nitrobenzyl)thio)-5H-[1,2,4]triazino[5,6-b]indole] | 617 nM | – | –
16 | N#Cc1ccccc1CSc1nnc2c3ccccc3n(S(=O)(=O)c3ccccc3)c2n1 [Example 34, 2′-(((5-(Phenylsulfonyl)-5H-[1,2,4]triazino[5,6-b]indol-3-yl)thio)methyl)benzonitrile] | 76 nM | – | –
17 | N#Cc1ccccc1CSc1nnc2c3ccccc3n(CC3CCCCC3)c2n1 [Example 36, 2′-(((5-(Cyclohexylmethyl)-5H-[1,2,4]triazino[5,6-b]indol-3-yl)thio)methyl)benzonitrile] | 270 nM | – | –

Now from value to compound:

Row | IC50 [1] | IC50 [2] | Assay 1 activity at 3 μM [1] | SMILES
18 | 628 nM | – | – | C[C@@H]1C[C@H]1C(=O)n1c2ccccc2c2nnc(SCc3ccccc3C#N)nc21 (relative stereo) [Example 40, 2′-((5-(2″-Methylcyclopropanecarbonyl)-5H-[1,2,4]triazino[5,6-b]indol-3-ylthio)methyl)benzonitrile]
19 | 72 nM | – | – | N#Cc1ccccc1CSc1nnc2c3ccccc3n(C(=O)[C@@H]3C[C@H]3c3ccccc3)c2n1 (stereo in doubt) [Example 38, 2′-((5-(2″-Phenylcyclopropanecarbonyl)-5H-[1,2,4]triazino[5,6-b]indol-3-ylthio)methyl)benzonitrile]
20 | 45 nM | – | – | N#Cc1ccccc1CSc1nnc2c3ccccc3n(Cc3ccc(F)cc3)c2n1 [Example 37, 2′-(((5-(4″-Fluorobenzyl)-5H-[1,2,4]triazino[5,6-b]indol-3-yl)thio)methyl)benzonitrile]
21 | 549 nM | – | – | N#Cc1ccccc1CSc1nnc2c3ccccc3n(CC(=O)C3CC3)c2n1 [Example 39, 2′-((5-(2-Cyclopropyl-2-oxoethyl)-5H-[1,2,4]triazino[5,6-b]indol-3-ylthio)methyl)benzonitrile]
22 | 144 nM | – | – | N#Cc1ccccc1CSc1nnc2c3ccccc3n(CC3CC3)c2n1 [Example 41, 2′-((5-(Cyclopropylmethyl)-5H-[1,2,4]triazino[5,6-b]indol-3-ylthio)methyl)benzonitrile]
23 | 181 nM | – | – | N#Cc1ccccc1CSc1nnc2c3ccccc3n(C(=O)C3CC3)c2n1 [Example 42, 2′-(((5-(Cyclopropanecarbonyl)-5H-[1,2,4]triazino[5,6-b]indole-3-yl)thio)methyl)benzonitrile]
24 | 20 nM | – | – | N#Cc1ccccc1CSc1nnc2c3c(Br)cccc3n(CC3CC3)c2n1 [Example 43, 2′-(((9-Bromo-5-(cyclopropylmethyl)-5H-[1,2,4]triazino[5,6-b]indol-3-yl)thio)methyl)benzonitrile]
25 | 16 nM | – | – | N#Cc1ccccc1CSc1nnc2c3c(Br)cccc3n(C(=O)C3CC3)c2n1 [Example 44, 2′-(((9-Bromo-5-(cyclopropanecarbonyl)-5H-[1,2,4]triazino[5,6-b]indol-3-yl)thio)methyl)benzonitrile]
26 | 2180 nM | – | – | O=C(O)c1ccccc1CSc1nnc2c(n1)[nH]c1ccccc12 [Example 46, 2′-(((5H-[1,2,4]Triazino[5,6-b]indol-3-yl)thio)methyl)benzoic]
27 | 11 nM | – | – | c1ccc(-c2nn[nH]n2)c(CSc2nnc3c(n2)[nH]c2ccccc23)c1 [Example 47]
28 | 4300 nM | – | – | Cc1ccccc1-c1cccc2[nH]c3nc(SCc4ccccc4C#N)nnc3c12 [Example 48, 2″-(((9-(o-Tolyl)-5H-[1,2,4]triazino[5,6-b]indol-3-yl)thio)methyl)benzonitrile]
29 | 2620 nM | – | – | COc1ccc(-c2cccc3[nH]c4nc(SCc5ccccc5C#N)nnc4c23)cc1 [Example 49, 2″-(((9-(4′-Methoxyphenyl)-5H-[1,2,4]triazino[5,6-b]indol-3-yl)thio)methyl)benzonitrile]
30 | 1760 nM | – | – | N#Cc1ccccc1CSc1nnc2c(n1)[nH]c1cccc(-c3ccsc3)c12 [Example 50, 2″-(((9-(Thiophen-3′-yl)-5H-[1,2,4]triazino[5,6-b]indol-3-yl)thio)methyl)benzonitrile]
31 | 231 nM | – | – | N#Cc1ccccc1CSc1nnc2c(n1)[nH]c1cccc(C3CC3)c12 [Example 51, 2″-(((9-Cyclopropyl-5H-[1,2,4]triazino[5,6-b]indol-3-yl)thio)methyl)benzonitrile]
